Usually Ki stands for the dissociation constant of the complex between target and ligand, obtained from inhibition or displacement. In general, IC50 refers to the concentration at which inhibition is half-maximal. A high value points to weaker potency in that assay.

Where “and” joins values, the source holds several entries; their conditions need not be identical. Equal entries are not always repeated.

One assay addresses D(2) dopamine receptor (Homo sapiens, UniProt P14416). The assay is described as follows: Ray2010 Assay 32. From the text: YM 09191-2 cloned PDSP web; .
Assay [1] addresses T1, Glutamate receptor ionotropic, NMDA 2D (Rattus norvegicus, UniProt Q62645). Description: Ray2010 Assay 62. From the text:
MK-801 hippocampus .

The target of assay [2] is T1, Glutamate receptor ionotropic, NMDA 2D. Description: Ray2010 Assay 66. From the text: MK-801 midbrain .
Assay [3] addresses Muscarinic acetylcholine receptor M1 (Rattus norvegicus, UniProt P08482). The assay is described as follows: Ray2010 Assay 47. From the text:
pirenzepine forebrain .

The target in assay [4] is T1, Glutamate receptor ionotropic, NMDA 2D. The assay is described as follows: Ray2010 Assay 64. From the text: MK-801 Thalamus + hypothalamus .
For assay [5] the target is unchanged. Description: Ray2010 Assay 69. From the text:
dizocilpine forebrain .

Assay [6] has as its target Sigma intracellular receptor 2 (Rattus norvegicus, UniProt Q5U3Y7). The assay is described as follows: Ray2010 Assay 42.
From the text: DTG liver .

Assay [7] deals with Muscarinic acetylcholine receptor M3 (Rattus norvegicus, UniProt P08483). The assay is described as follows: Ray2010 Assay 48. From the text: (§1) N-methylacoblamine forebrain .
Assay [8] concerns the target T2, Muscarinic acetylcholine receptor M2 (Rattus norvegicus, UniProt P10980). Description: Ray2010 Assay 48.
From the text: as §1

The target of another assay is Mu-type opioid receptor (Bos taurus, UniProt P79350). Description: Ray2010 Assay 55. The text has this: DAGO cortex .
Sequence of Mu-type opioid receptor (P79350 whole entry): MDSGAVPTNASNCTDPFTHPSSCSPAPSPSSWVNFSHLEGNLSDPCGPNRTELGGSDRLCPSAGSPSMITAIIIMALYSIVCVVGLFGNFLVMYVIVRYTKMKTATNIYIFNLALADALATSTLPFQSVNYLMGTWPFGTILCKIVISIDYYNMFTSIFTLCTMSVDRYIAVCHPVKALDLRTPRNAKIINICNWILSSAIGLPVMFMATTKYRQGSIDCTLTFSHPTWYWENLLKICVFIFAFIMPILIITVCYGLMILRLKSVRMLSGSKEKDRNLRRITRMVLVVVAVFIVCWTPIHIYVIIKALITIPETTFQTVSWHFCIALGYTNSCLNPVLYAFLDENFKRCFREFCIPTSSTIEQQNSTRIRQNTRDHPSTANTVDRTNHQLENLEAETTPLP
Assay [9] has as its target Sigma non-opioid intracellular receptor 1 (UniProt Q58DH7). Description: Ray2010 Assay 40. From the text:
(+)-pentazocine caudate .

For a further assay, the target named is T3, D(4) dopamine receptor (Homo sapiens, UniProt P21917).
T3 sequence (P21917 whole entry): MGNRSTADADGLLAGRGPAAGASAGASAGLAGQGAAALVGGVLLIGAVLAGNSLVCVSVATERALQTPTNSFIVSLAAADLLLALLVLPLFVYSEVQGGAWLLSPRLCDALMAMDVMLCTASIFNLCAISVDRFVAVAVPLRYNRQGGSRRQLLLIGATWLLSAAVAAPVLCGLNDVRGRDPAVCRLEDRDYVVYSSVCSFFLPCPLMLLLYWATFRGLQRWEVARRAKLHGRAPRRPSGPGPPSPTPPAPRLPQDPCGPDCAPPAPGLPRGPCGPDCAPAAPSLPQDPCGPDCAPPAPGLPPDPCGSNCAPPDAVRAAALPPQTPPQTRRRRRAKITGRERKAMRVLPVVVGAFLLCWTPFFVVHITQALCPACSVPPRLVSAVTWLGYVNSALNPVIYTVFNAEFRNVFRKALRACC
Description: Ray2010 Assay 34. The text has this: spiperone cloned .

The target of assay [10] is Gamma-aminobutyric acid receptor subunit alpha-1 (Bos taurus, UniProt P08219). Description: Ray2010 Assay 70. From the text:
muscimol cortex .

Assay [11] addresses T1, Glutamate receptor ionotropic, NMDA 2D. Description: Ray2010 Assay 68. The text has this: MK-801 basal forebrain .
A further assay concerns the target D(3) dopamine receptor (Bos taurus, UniProt F1N454). The assay is described as follows: Ray2010 Assay 33. The text has this:
7-OH-DPAT caudate .

The target of assay [12] is T1, Glutamate receptor ionotropic, NMDA 2D. Description: Ray2010 Assay 65. The text has this:
MK-801 spinal cord .

Assay [13] concerns the target T4, 5-hydroxytryptamine receptor 1A (Homo sapiens, UniProt P08908).
T4 sequence (P08908 whole entry): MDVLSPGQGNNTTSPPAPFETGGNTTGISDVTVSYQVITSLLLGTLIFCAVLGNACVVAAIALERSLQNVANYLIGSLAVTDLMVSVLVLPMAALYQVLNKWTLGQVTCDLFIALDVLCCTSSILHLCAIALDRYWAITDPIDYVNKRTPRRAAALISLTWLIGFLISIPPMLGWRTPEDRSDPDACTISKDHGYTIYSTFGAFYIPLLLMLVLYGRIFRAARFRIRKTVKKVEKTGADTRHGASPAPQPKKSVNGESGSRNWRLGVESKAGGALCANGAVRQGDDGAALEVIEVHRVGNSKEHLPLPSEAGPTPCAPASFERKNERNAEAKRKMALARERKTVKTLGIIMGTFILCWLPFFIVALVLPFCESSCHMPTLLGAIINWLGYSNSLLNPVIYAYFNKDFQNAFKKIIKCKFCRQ
The assay is described as follows: Ray2010 Assay 28. The text has this:
8-oh-dpat cloned PDSP web; .

The target of assay [14] is Muscarinic acetylcholine receptor (UniProt F1N5C5). Description: Ray2010 Assay 45. From the text: pirenzepine hippocampus .
The target in assay [15] is Beta-1 adrenergic receptor (Rattus norvegicus, UniProt P18090). Description: Ray2010 Assay 35. The text has this:
dihydro-alprenalol HCL cortex .

Assay [16] has as its target T2, Muscarinic acetylcholine receptor M2. Description: Ray2010 Assay 50. The text has this:
AF-DX384 forebrain .

Assay [17] deals with 5-hydroxytryptamine receptor 1D (UniProt F1MMU1). The assay is described as follows: Ray2010 Assay 30. The text has this: 5-HT caudate .
Sequence of 5-hydroxytryptamine receptor 1D (F1MMU1 whole entry): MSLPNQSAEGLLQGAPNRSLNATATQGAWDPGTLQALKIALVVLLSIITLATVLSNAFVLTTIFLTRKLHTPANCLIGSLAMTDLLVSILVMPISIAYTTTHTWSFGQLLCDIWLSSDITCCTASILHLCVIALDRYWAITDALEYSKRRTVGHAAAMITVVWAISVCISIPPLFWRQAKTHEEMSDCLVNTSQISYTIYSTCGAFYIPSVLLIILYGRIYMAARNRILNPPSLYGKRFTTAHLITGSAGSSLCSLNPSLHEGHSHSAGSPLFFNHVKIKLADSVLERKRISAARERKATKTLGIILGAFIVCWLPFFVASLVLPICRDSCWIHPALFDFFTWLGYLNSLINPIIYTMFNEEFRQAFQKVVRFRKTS
The target in assay [18] is Sigma non-opioid intracellular receptor 1 (Cavia porcellus, UniProt Q60492). Description: Ray2010 Assay 39. The text has this:
(+)-pentazocine brain Mach et al.1995.

Assay [19] deals with 5-hydroxytryptamine receptor 2A (Rattus norvegicus, UniProt P14842). The assay is described as follows: Ray2010 Assay 25. The text has this:
ketanserin cloned PDSP web; .

Assay [20] has as its target Muscarinic acetylcholine receptor M2 (Bos taurus, UniProt P41985). Description: Ray2010 Assay 49. The text has this: QBN cortex .
Assay [21] deals with Gamma-aminobutyric acid receptor subunit beta-1 (Homo sapiens, UniProt P18505). The assay is described as follows: Ray2010 Assay 74. From the text: (§2) Table S2 shows raw Ki data for the current study combined with data collected from the literature for the ten additional compounds.
Sequence of Gamma-aminobutyric acid receptor subunit beta-1 (P18505 whole entry): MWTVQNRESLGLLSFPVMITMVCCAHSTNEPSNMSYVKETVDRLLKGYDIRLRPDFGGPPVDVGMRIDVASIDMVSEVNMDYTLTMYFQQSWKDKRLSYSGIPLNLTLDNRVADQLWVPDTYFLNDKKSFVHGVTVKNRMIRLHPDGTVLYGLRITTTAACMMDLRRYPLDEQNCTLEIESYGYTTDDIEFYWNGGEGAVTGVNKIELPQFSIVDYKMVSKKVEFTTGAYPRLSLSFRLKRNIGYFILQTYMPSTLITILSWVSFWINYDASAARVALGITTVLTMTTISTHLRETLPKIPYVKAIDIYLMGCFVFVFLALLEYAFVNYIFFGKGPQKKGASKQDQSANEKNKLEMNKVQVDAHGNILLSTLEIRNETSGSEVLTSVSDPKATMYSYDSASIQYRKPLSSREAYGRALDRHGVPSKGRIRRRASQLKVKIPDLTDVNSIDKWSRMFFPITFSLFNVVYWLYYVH
In assay [22] the target is T1, Glutamate receptor ionotropic, NMDA 2D. Description: Ray2010 Assay 67. From the text: MK-801 cerebellum .
Assay [23] concerns the target Neuronal acetylcholine receptor subunit alpha-4/beta-4 (Homo sapiens, UniProt P43681+P30926). The assay is described as follows: Ray2010 Assay 74.
From the text: as §2

In assay [24] the target is Neuronal acetylcholine receptor subunit alpha-2/beta-4 (Homo sapiens, UniProt Q15822+P30926). Description: Ray2010 Assay 74.
From the text: as §2

Assay [25] concerns the target Neuronal acetylcholine receptor subunit alpha-4/beta-2 (Homo sapiens, UniProt P43681+P17787). Description: Ray2010 Assay 74.
From the text: as §2

Assay [26] deals with Alpha-2B adrenergic receptor (Homo sapiens, UniProt P18089). Description: Ray2010 Assay 74.
From the text: as §2

T1 sequence (Q62645 whole entry): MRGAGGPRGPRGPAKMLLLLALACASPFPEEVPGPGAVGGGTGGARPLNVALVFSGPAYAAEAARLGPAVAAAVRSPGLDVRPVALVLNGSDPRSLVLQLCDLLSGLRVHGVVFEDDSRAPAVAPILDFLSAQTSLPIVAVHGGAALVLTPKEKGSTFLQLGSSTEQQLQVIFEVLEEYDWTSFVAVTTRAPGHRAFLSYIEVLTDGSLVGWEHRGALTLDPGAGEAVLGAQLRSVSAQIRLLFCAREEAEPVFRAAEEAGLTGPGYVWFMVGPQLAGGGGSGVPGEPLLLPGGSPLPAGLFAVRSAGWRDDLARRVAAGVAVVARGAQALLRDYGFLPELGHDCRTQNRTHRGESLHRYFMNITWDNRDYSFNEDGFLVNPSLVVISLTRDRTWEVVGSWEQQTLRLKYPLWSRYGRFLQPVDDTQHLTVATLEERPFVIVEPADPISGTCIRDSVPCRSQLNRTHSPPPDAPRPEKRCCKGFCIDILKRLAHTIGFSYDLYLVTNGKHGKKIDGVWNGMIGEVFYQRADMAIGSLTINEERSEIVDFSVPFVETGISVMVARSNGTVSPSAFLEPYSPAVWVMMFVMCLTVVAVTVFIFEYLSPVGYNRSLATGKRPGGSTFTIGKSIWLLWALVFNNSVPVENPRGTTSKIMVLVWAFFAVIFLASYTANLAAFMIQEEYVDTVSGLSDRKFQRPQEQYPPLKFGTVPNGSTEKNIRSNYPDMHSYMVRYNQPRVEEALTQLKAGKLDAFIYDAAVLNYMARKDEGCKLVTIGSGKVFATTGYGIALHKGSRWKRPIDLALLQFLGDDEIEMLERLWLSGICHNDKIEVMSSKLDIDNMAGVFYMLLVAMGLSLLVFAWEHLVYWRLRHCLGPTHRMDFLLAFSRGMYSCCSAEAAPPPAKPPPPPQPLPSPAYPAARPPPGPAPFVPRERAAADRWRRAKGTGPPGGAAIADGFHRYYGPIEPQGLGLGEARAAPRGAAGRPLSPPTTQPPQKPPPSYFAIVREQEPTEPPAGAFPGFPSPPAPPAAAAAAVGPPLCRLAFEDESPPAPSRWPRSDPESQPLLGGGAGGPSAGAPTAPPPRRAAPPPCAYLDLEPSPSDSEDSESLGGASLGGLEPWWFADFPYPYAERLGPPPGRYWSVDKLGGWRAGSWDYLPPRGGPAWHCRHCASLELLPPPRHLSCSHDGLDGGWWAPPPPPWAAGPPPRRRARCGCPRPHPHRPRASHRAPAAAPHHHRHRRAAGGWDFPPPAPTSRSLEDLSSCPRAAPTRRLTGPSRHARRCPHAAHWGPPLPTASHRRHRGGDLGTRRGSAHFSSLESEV
T2 sequence (P10980 whole entry): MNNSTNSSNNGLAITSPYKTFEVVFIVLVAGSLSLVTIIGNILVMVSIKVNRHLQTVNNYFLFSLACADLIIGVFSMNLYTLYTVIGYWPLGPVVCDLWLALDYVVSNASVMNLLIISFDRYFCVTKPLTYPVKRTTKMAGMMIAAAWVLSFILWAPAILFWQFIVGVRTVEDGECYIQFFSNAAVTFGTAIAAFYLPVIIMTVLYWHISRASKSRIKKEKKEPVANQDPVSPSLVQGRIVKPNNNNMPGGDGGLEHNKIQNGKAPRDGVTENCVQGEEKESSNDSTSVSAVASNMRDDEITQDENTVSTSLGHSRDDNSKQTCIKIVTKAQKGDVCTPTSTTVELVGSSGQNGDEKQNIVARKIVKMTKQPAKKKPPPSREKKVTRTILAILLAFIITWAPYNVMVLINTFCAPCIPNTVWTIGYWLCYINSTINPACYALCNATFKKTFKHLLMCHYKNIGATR
Sequence of D(3) dopamine receptor (F1N454 whole entry): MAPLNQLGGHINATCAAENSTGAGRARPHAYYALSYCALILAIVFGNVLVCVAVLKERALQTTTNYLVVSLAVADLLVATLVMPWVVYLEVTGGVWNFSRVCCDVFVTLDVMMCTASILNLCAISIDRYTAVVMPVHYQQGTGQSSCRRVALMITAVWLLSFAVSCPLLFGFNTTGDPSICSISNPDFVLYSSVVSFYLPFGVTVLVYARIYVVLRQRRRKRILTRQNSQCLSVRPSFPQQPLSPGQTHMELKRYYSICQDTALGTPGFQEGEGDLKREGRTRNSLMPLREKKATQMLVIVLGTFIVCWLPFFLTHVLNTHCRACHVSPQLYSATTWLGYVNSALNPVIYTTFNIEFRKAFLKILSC
Sequence of D(2) dopamine receptor (P14416 whole entry): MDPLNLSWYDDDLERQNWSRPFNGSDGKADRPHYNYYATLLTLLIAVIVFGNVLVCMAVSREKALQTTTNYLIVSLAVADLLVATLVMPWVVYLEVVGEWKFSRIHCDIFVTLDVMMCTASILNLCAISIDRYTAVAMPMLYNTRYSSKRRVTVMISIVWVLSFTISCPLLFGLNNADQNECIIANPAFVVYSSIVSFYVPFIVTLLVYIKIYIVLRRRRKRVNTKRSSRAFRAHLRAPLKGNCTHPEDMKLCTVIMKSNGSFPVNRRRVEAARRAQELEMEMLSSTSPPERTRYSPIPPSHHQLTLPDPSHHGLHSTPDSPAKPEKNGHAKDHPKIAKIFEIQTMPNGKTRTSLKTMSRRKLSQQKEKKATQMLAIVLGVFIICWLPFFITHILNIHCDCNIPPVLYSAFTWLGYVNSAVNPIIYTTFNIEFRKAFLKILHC
Sequence of Sigma non-opioid intracellular receptor 1 (Cavia porcellus, UniProt Q60492) (Q60492 whole entry): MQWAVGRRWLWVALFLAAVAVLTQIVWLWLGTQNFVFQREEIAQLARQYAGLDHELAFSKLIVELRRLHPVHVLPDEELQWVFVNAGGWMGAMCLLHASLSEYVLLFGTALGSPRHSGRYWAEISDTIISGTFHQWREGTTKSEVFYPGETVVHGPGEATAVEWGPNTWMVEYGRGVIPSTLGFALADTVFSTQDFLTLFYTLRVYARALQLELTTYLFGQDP
Sequence of Beta-1 adrenergic receptor (P18090 whole entry): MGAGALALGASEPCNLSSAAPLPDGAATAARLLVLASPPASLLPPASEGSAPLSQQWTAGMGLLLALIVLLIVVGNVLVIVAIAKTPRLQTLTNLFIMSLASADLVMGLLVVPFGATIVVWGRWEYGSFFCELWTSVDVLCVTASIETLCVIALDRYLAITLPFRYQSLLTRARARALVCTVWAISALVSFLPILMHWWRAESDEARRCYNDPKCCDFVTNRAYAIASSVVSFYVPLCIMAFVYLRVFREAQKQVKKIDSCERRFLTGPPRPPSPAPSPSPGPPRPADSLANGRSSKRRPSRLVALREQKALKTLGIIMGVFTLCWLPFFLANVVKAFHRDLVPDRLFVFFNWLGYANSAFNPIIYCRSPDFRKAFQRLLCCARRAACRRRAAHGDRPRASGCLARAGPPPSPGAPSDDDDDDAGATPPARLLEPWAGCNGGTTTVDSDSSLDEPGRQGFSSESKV
Sequence of Gamma-aminobutyric acid receptor subunit alpha-1 (P08219 whole entry): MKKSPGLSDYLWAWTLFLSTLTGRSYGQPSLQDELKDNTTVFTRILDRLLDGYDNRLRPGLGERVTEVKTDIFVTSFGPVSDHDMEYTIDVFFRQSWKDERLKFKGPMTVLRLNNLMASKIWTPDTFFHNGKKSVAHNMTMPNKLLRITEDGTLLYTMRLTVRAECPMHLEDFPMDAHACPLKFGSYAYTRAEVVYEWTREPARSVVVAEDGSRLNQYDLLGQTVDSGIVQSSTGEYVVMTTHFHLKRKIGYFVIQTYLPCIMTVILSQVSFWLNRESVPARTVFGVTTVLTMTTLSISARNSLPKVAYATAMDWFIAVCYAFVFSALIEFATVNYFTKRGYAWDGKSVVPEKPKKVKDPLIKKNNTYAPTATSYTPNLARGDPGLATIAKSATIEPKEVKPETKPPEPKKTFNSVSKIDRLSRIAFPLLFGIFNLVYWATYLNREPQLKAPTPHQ

As for `CC[C@H]1C[C@@H]2C[C@H]3c4[nH]c5ccc(OC)cc5c4CCN(C2)[C@@H]13`, the Ki was more than 10 µM on D(2) dopamine receptor; 1.19 µM in [1]; 2.46 µM in [2]; 1.98 µM in assay [4]; 0.0904 µM in assay [6]; 12.5 µM in [7]. Also, the inhibition constant (Ki) is 50.1 µM in assay [8]; 11 µM and 2 µM at Mu-type opioid receptor; 2.5 µM in assay [9]; more than 100 µM in assay [10]; 3.9 µM in [11]; 70 µM on D(3) dopamine receptor. The inhibition constant Ki in assay [12] was 2.22 µM; in assay [13] it was more than 10 µM; in [14], 31.6 µM; in assay [15] it was more than 100 µM; in assay [17] it was more than 100 µM; in assay [18], 9.31 µM. In addition, the Ki in [19] was more than 10 µM; in [20], 31 µM; in assay [21] it was more than 10 µM; in assay [22] it was 3.31 µM. Besides, the IC50 in assay [3] was 7.6 µM; in assay [5] it was 3.2 µM; against D(4) dopamine receptor, more than 100 µM; in [16], 5.9 µM.

As to `CNC(C)Cc1ccc2c(c1)OCO2` (stereo unspecified) [mdma], in assay [21], the inhibition constant (Ki) is more than 10 µM.

For “CAS_82830-44-2::(2R)-1-(4-iodo-2,5-dimethoxyphenyl)propan-2-amine::DOI,(-)::US20250270173, Compound DOI”, the inhibitory constant (Ki) in assay [23] is more than 10 µM; in assay [24], more than 10 µM; in assay [25], more than 10 µM; in assay [26], 0.34 µM.

Values taken from BindingDB's records for PubMed 20126400 (University of Oklahoma, 2010).
